In patent publication EP1370276B1, “INTERCELLULAR COMMUNICATION FACILITATING COMPOUNDS AND THEIR MEDICAL USE” (Zealand Pharma A/S, priority 2001, dated 2002):
pIC50: −log10 of the molar value. Where two headings read alike, the source gives them in different places.

Legend:
[1] = molecular target: murine heart tissue preparations; assay: Displacement of [125I]AAP10 from murine heart tissue preparations; assay type: binding, mice
Experimental: Hearts are excised from mice (Balb/cJ, 20 g), rinsed twice in ice-cold (0°C) 0.32 M sucrose and homogenized on ice in 10 volumes of sucrose with an Ultra Turrax homogeniser (1000 rpm) for 2 minutes. The homogenate is centrifuged at 1000 gmea" for 10 minutes at 4° C and the supernatant collected and filtrated through 4 layers of gauze. The filtrate is then centrifuged at 50,000 gmean for 45 min at 4° C and the pellet resuspended in 10 volorg. wet weight ice-cold distilled water and incubated for 60 min at 0° C and re-centrifuged at 50,000 gmean at 45 min at 4° C. The resulting pellet is resuspended in 2 vol org. wet weight of PBS (Phosphate Buffered Saline) and stored at - 80° C until use.

[2] = test system: calcium-induced arrythmias; assay: Calcium-induced arrhythmia model in mice (time to 2nd degree AV-block); assay type: in vivo; details: mouse, in vivo
Experimental: The antiarrhythmic effects of compounds of this invention were tested in an in vivo model of calcium-induced arrythmias according to the model of Lynch et al. ^[37]. […]. Commercial solutions of hypnorm and midazolam were diluted 1:1 in distilled water and one part diluted Hypnorm® is mixed with one part diluted midazolam.
The anaesthesia was induced by s.c. administration in a dose of […]. An i.v. cannula was inserted into the tail vein. The lead II ECG signal was recorded continuously by positioning of a stainless steel ECG electrodes on the right forelimb and on the left hind limb. The ground electrode was placed on the right hind limb. The signal was amplified (x 5.000-10.000) and filtered (0.1-150 Hz) via a Hugo Sachs Electronic model 689 ECG module. The analogue signal was digitised via a 12 bit data acquisition board (Data Translation model DT321) and sampled at 1000 Hz using the Notocord HEM 3.1 software for Windows NT. After a 10-min equilibration period, the test sample of drug was injected into the tail vein. Mice pre-treated with vehicle were tested as a measure of the control level in untreated animals. The injection volume was 100 µl in all experiments. Infusion of CaCl2 (30 mg/ml, 0.1 ml/min ≈ 100 mg/kg/min (calciumchlorid-2-hydrat, Riedel-de Haën, Germany)) was started 3 min after i.v. administration of drug or vehicle. The time lag to onset of 2nd degree AV-block was determined as the time from the start of CaCl2 infusion until the first arrhythmic event occured. An event of 2nd degree AV-block was defined as intermittent failure of the AV conduction characterised by a P-wave without the concomitant QRS complex.
Responses were expressed relative to the time until 2nd degree AV-block occurred in vehicle treated mice.

[3] = test system: ventricular reentry arrhytmias; assay: Ventricular reentry arrhythmias in dogs after coronary artery occlusion; assay type: in vivo; details: after the lowest i.v. dose (bolus: 0.1 µg/kg; infusion: 2 ng/kg/min), after CAO
Experimental: Three dogs were studied in the anesthetized, open chest state to facilitate electrode placement for mapping. α-chloralose was given as a bolus (200 mg/kg) and then a constant Infusion at 8 mg/kg/hr (dissolved in polyethylene glycol, MW=200). The femoral vein and artery was cannulated for administration of fluid and drugs and for measurement of ascending aortic pressure, respectively.
The sinus node was clamped and the atrial appendage was paced with a programmable stimulator with constant current outputs at two times diastolic threshold. Pacing rate was ≥200 b/min to control heart rates. […] Late ventricular diastolic threshold was measured during each intervention; the pacing current was four times threshold.
Test sites were chosen along the shaft of 16 pole needles (J. Kassell, Fayetteville, NC); each pole completely surrounds the needle shaft to prevent directionality of needle orientation from recording of adjacent Purkinje strands. Six bipolar electrograms (1 mm spacing) were recorded sequentially down the shaft of the needle by amplifying up to 1000 times, filtering from 3-1300 Hz and recording via oscilloscope during atrial pacing. Four intramural electrograms are recorded on each multipolar needle. […] Inter-needle distance measured on epicardium varies over 6-10 mm in dogs weighing 12-16 kg. […]

human osteoblastic cells = assay: Intercellular calcium waves after mechanical stimulation, human osteoblastic cells; assay type: cell-based
Experimental: Human osteblast cells (hOB): Cells were isolated from human bone marrow obtained by puncture of the posterior iliac spine of healthy volunteers (aged 20-36): 10-15 ml marrow material was collected in 15 ml PBS+Ca,Mg (Life Technologies, Cat.No. 14040) with 100 U/ml Heparin (Sigma, Cat.No. H-3149). The mononuclear fraction of the marrow was isolated on a Lymphoprep gradient (Nycomed Pharma, Cat.No. 1001967), by centrifugation at 2200 rpm for 30 min. After harvesting, the mononuclear fraction was washed once with culture medium and centrifuged at 1800 rpm for 10 min. Subsequently cells were counted and plated in culture medium at 8x10^6 cells/100 mm dish. hOB medium (all reagents obtained from Life Technologies): MEM w/o Phenol Red w/ Glutamax (Cat.No. 041-93013) supplemented with 10% heat inactivated fetal calf serum (Cat.No. 10106) and 0.1% Penicillin/Streptomycin (Cat.No. 15140). Medium was changed the following day and the cells were cultured at 37°C in 5%CO2 with medium change every 7 days. After 3-4 weeks of culture the cells had reached 70% confluence. The medium was then supplemented with 100 nM Dexamethasone (Sigma, Cat.No. D-4902) for 7 days. Cells were then plated for video imaging experiments: a 25 mm #1 glass coverslip was
placed in a 35 mm dish (or each well of a 6-well multidish), cells were plated at 2.5×10^5 cells/coverslip and cultured for 2-3 days before use. […]

ROS 17/2.8 cells = assay: Intercellular calcium waves after mechanical stimulation, ROS 17/2.8 cells; assay type: cell-based, rat; details: 10^-8 M, 10 minutes, after 48 hours hypoxia 3-6% O2 (2.2 cells before)
Experimental: ROS 17/2.8 cells: Cells were cultured in 100 mm dishes at 37°C with 5% CO2 and medium change every 2-3 days. ROS medium (all reagents obtained from Life Technologies): MEM (Cat.No. 31095) supplemented with 10% heat-inactivated calf serum (Cat.No. 16170), 1% NEAA (Cat.No. 11140), 1% Sodium Pyruvate (Cat.No. 11360), 1% L-Glutamine (Cat.No. 25030) and 0.1% Penicillin/Streptomycin (Cat.No. 15140). For video imaging experiments, cells were plated on coverslips at 2-3×10^5 cells/coverslip and cultured for 2-3 days before use.
The cells cultured on coverslips were loaded with 5 µM fura-2-AM (Molecular Probes, Cat.No. F-1221), for 30 minutes at 37°C, and incubated in fresh medium for 20 minutes. Coverslips were then affixed to a PDMI-2 culture chamber (Medical Systems Corp.), maintained at 37°C with superfused CO2, on a Zeiss Axiovert microscope. Intercellular calcium waves were induced by mechanical stimulation of a single cell using a borosilicate glass micro pipette affixed to an Eppendorf 5171 micromanipulator. Imaging was performed using a MetaMorph imaging system (Universal Imaging). The excitation light (340 and 380 nm) was provided by a monochromator (T.I.L.L. Photonics GmbH). Images were acquired with an intensified CCD camera (Dage MTI) and digitized with a Matrox MVP image processing board.

## Ac-D-Tyr-D-Pro-D-4Hyp-Gly-D-Ala-Gly-NH2 [Compound 2]
[1]; displacement of 0.8 nM [125I]AAP10, filtrate, read-out: Filtrate IC50
  pIC50: 8.44
[1]; displacement of 0.8 nM [125I]AAP10, membranes, read-out: Membranes IC50
  pIC50: 8.92
[2]
  CaCl2 mice Score: 3
[3]
  inducibility of epicardial reentry VT: VT was no longer inducible
Human osteoblastic cells; 10^-8 M, medium without glucose, after ATP desensitization (1.4 cells before)
  average number of cells in the calcium wave: 2.9 cells
Human osteoblastic cells; 10^-8 mol/l, 10 minutes, after ATP desensitization (4.5 cells before)
  average number of cells in the calcium wave: 6.2 cells
ROS 17/2.8 cells
  average number of cells in the calcium wave: 5.4 cells
